This data set concerns rodent carcinogenicity bioassays, tumor incidence. In words: CCRIS carcinogenicity studies. In a few lines: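 Archive of carcinogenicity, mutagenicity, tumor promotion and tumor inhibition results drawn from journals, NCI reports and other sources, expert-reviewed; covers 1985-2011 and is no longer updated.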

Experimental findings from PubChem BioAssay AID1259411 (Chemical Carcinogenesis Research Information System (CCRIS), 2018) are described below.

Molecules are shown by their SMILES. Activity calls are given as the source filed them. How the calls were made is not given here.

`Nc1nc(N)nc(N)n1`: the carcinogen call was “inactive; negative” (Species: MOUSE, Strain/Sex: B6C3F1/FEMALE, Route: ORAL, Dose: 0, 2250, 4500 PPM IN DIET FOR 103 WK, Dose: 0, 2250, 4500 PPM IN DIET FOR 103 WK); “inactive; negative” (Species: MOUSE, Strain/Sex: B6C3F1/MALE, Route: ORAL, Dose: 0, 2250, 4500 PPM IN DIET FOR 103 WK, Dose: 0, 2250, 4500 PPM IN DIET FOR 103 WK); “inactive; negative” (Species: RAT, Strain/Sex: F344/FEMALE, Route: ORAL, Dose: 0, 4500, 9000 PPM IN DIET FOR 103 WK, Dose: 0, 4500, 9000 PPM IN DIET FOR 103 WK); “active; positive” (Species: RAT, Strain/Sex: F344/MALE, Route: ORAL, Dose: 0, 0.3, 1, 3% IN DIET FOR 36 WK (STUDY DURATION: 40 WK), Dose: 0, 0.3, 1, 3% IN DIET FOR 36 WK (STUDY DURATION: 40 WK), Tumor Site: Type of Lesion: BLADDER: PAPILLOMA, CARCINOMA); “active; positive” (Species: RAT, Strain/Sex: F344/MALE, Route: ORAL, Dose: 0, 1, 3% IN DIET CONTAINING 5% SODIUM CHLORIDE FOR 36 WK (STUDY DURATION: 40 WK), Dose: 0, 1, 3% IN DIET CONTAINING 5% SODIUM CHLORIDE FOR 36 WK (STUDY DURATION: 40 WK), Tumor Site: Type of Lesion: URAINARY BLADDER: PAPILLOMA, CARCINOMA); “inactive; negative” (Species: RAT, Strain/Sex: F344/MALE, Route: ORAL, Dose: 0, 1, 3% IN DIET CONTAINING 10% SODIUM CHLORIDE FOR 36 WK (STUDY DURATION: 40 WK), Dose: 0, 1, 3% IN DIET CONTAINING 10% SODIUM CHLORIDE FOR 36 WK (STUDY DURATION: 40 WK)). Besides, the carcinogen call is “active; positive” (Species: RAT, Strain/Sex: F344/MALE, Route: ORAL, Dose: 0, 1, 3% IN DIET FOR 36 WK (STUDY DURATION: 40 WK), Dose: 0, 1, 3% IN DIET FOR 36 WK (STUDY DURATION: 40 WK), Tumor Site: Type of Lesion: URINARY BLADDER: PAPILLOMA, CARCINOMA) and “active; positive” (Species: RAT, Strain/Sex: F344/MALE, Route: ORAL, Dose: 0, 2250, 4500 PPM IN DIET FOR 103 WK, Dose: 0, 2250, 4500 PPM IN DIET FOR 103 WK, Tumor Site: Type of Lesion: URINARY BLADDER: TRANSITIONAL CELL PAPILLOMA OR CARCINOMA).

`CN(N=O)C(=O)N[C@@H](C=O)[C@@H](O)[C@H](O)[C@H](O)CO`: the carcinogen call by setting is: (Species: HAMSTER, Route: INTRAPERITONEAL, INTRAVENOUS, Tumor Site: Type of Lesion: LIVER) “active; positive”; (Species: MOUSE, Route: INTRAPERITONEAL, Tumor Site: Type of Lesion: KIDNEY, LUNG, UTERUS, Tumor Site: Type of Lesion: KIDNEY, LUNG, UTERUS) “active; positive”; (Species: RAT, Route: INTRAPERITONEAL, Tumor Site: Type of Lesion: KIDNEY, LIVER) “active; positive”; (Species: RAT, Route: INTRAVENOUS, Tumor Site: Type of Lesion: KIDNEY) “active; positive”; (Species: RAT, Strain/Sex: SHR/MALE, Route: INTRAPERITONEAL, Dose: 0, 37.5, 50, 62.5, 75 MG/KG INJECTED ONCE (STUDY DURATION: 12 MO), Dose: 0, 37.5, 50, 62.5, 75 MG/KG INJECTED ONCE (STUDY DURATION: 12 MO), Tumor Site: Type of Lesion: LIVER: HEPATOMA, KIDNEY: NEPHROBLASTOMA, PANCREATIC ISLETS: TUMOR, Tumor Site: Type of Lesion: LIVER: HEPATOMA, KIDNEY: NEPHROBLASTOMA, PANCREATIC ISLETS: TUMOR) “active; positive”; (Species: RAT, Strain/Sex: WISTAR/MALE, Route: INTRAPERITONEAL, Dose: 0, 100, 125, 137.5, 150 MG/KG INJECTED ONCE (STUDY DURATION: 12 M0), Dose: 0, 100, 125, 137.5, 150 MG/KG INJECTED ONCE (STUDY DURATION: 12 M0), Tumor Site: Type of Lesion: LIVER: HEPATOMA, KIDNEY: NEPHROBLASTOMA) “active; positive”.

As for `CCNC(=O)N(CCO)N=O`, the carcinogen call (Species: RAT, Strain/Sex: F344/FEMALE, Route: INTRAVESICULAR, Dose: 0, 3.6 MG 2/WK FOR 30 WK (STUDY DURATION: LIFETIME), Tumor Site: Type of Lesion: BLADDER: TUMOR, UTERUS: TUMOR) is “active; positive”; the carcinogen call (Species: RAT, Strain/Sex: F344/FEMALE, Route: ORAL, Dose: 0, 37, 74 MG/L IN DRINKING WATER 5 D/WK FOR 30 WK (STUDY DURATION: LIFETIME), Dose: 0, 37, 74 MG/L IN DRINKING WATER 5 D/WK FOR 30 WK (STUDY DURATION: LIFETIME), Tumor Site: Type of Lesion: MAMMARY GLAND: CARCINOMA) is “active; positive”; the carcinogen call (Species: RAT, Strain/Sex: F344/MALE, Route: GAVAGE, Dose: 0, 3.6 MG IN 0.2 ML ETHYL ACETATE/CORN OIL (1:1) 2/WK FOR 31 WK (TOTAL DOSE: 223 MG) (STUDY DURATION: 80 WK), Tumor Site: Type of Lesion: LIVER: CARCINOMA, LUNG: CARCINOMA OR ADENOMA, BRAIN: TUMORS, THYROID: CARCINOMA OR ADENOMA, PERITONEUM: MESOTHELIOMA, Tumor Site: Type of Lesion: LIVER: CARCINOMA, LUNG: CARCINOMA OR ADENOMA, BRAIN: TUMORS, THYROID: CARCINOMA OR ADENOMA, PERITONEUM: MESOTHELIOMA) was “active; positive”; the carcinogen call (Species: RAT, Strain/Sex: F344/MALE, Route: ORAL, Dose: 0, 37, 74 MG/L IN DRINKING WATER 5 D/WK FOR 30 WK (STUDY DURATION: LIFETIME), Dose: 0, 37, 74 MG/L IN DRINKING WATER 5 D/WK FOR 30 WK (STUDY DURATION: LIFETIME), Tumor Site: Type of Lesion: LIVER: TUMOR, LUNG: TUMOR, THYROID: FOLLICULAR TUMOR, MESOTHELIUM: TUMOR, NERVOUS SYSTEM: TUMOR, SKIN: TUMOR, Tumor Site: Type of Lesion: LIVER: TUMOR, LUNG: TUMOR, THYROID: FOLLICULAR TUMOR, MESOTHELIUM: TUMOR, NERVOUS SYSTEM: TUMOR, SKIN: TUMOR) was “active; positive”.

For the molecule `O=C(O)CCCCCCCCC(=O)O`, the carcinogen call reads like this: (Species: RABBIT, Strain/Sex: NEW ZEALAND/FEMALE, Route: ORAL, Dose: 0, 750, 1000 MG/KG/BW IN DIET FOR 6 MO (STUDY DURATION: 181 D), Dose: 0, 750, 1000 MG/KG/BW IN DIET FOR 6 MO (STUDY DURATION: 181 D)) “inactive; negative”; (Species: RABBIT, Strain/Sex: NEW ZEALAND/MALE, Route: ORAL, Dose: 0, 750, 1000 MG/KG/BW IN DIET FOR 6 MO (STUDY DURATION: 181 D), Dose: 0, 750, 1000 MG/KG/BW IN DIET FOR 6 MO (STUDY DURATION: 181 D)) “inactive; negative”; (Species: RAT, Strain/Sex: WISTAR/FEMALE, Route: ORAL, Dose: 0, 500, 1000 MG/KG/BW IN DIET FOR 6 MO (STUDY DURATION: 181 D), Dose: 0, 500, 1000 MG/KG/BW IN DIET FOR 6 MO (STUDY DURATION: 181 D)) “inactive; negative”; (Species: RAT, Strain/Sex: WISTAR/MALE, Route: ORAL, Dose: 0, 500, 1000 MG/KG/BW IN DIET FOR 6 MO (STUDY DURATION: 181 D), Dose: 0, 500, 1000 MG/KG/BW IN DIET FOR 6 MO (STUDY DURATION: 181 D)) “inactive; negative”.

On to `O=[N+]([O-])c1cc([N+](=O)[O-])c2ccc(S(=O)(=O)O)cc2c1O`, for which the carcinogen call is “inactive; negative” (Species: MOUSE, Strain/Sex: SWISS-WEBSTER/FEMALE, Route: DERMAL, Dose: 0, 1% IN 0.1 ML DISTILLED WATER 1/WK FOR 18 MO (STUDY DURATION: 18 MO)) and “inactive; negative” (Species: MOUSE, Strain/Sex: SWISS-WEBSTER/MALE, Route: DERMAL, Dose: 0, 1% IN 0.1 ML DISTILLED WATER 1/WK FOR 18 MO (STUDY DURATION: 18 MO)).
